Results as given in the NIST ThermoML archive (doi:10.1016/j.tca.2014.04.026).
± gives the expanded uncertainty stated by the source.

Assay: molar heat capacity at constant pressure
Settings: 101 kPa, Liquid, Small sample (50 mg) DSC

## CCn1cc[n+](C)c1.N#C[C-](C#N)C#N [1-ethyl-3-methyl-1H-imidazolium tricyanomethanide]
296.2 K
  molar heat capacity at constant pressure: 357 ± 7 J/K/mol
300.2 K
  molar heat capacity at constant pressure: 360 ± 7 J/K/mol
304.2 K
  molar heat capacity at constant pressure: 362 ± 7 J/K/mol
308.2 K
  molar heat capacity at constant pressure: 364 ± 7 J/K/mol
312.2 K
  molar heat capacity at constant pressure: 366 ± 7 J/K/mol
316.2 K
  molar heat capacity at constant pressure: 367 ± 7 J/K/mol
320.2 K
  molar heat capacity at constant pressure: 369 ± 7 J/K/mol
324.2 K
  molar heat capacity at constant pressure: 370 ± 7 J/K/mol
328.2 K
  molar heat capacity at constant pressure: 372 ± 7 J/K/mol
332.2 K
  molar heat capacity at constant pressure: 374 ± 8 J/K/mol
336.2 K
  molar heat capacity at constant pressure: 377 ± 8 J/K/mol
340.2 K
  molar heat capacity at constant pressure: 379 ± 8 J/K/mol
344.2 K
  molar heat capacity at constant pressure: 382 ± 8 J/K/mol
348.2 K
  molar heat capacity at constant pressure: 384 ± 8 J/K/mol
352.2 K
  molar heat capacity at constant pressure: 387 ± 8 J/K/mol
356.2 K
  molar heat capacity at constant pressure: 390 ± 8 J/K/mol
360.2 K
  molar heat capacity at constant pressure: 393 ± 8 J/K/mol
364.2 K
  molar heat capacity at constant pressure: 396 ± 8 J/K/mol
368.2 K
  molar heat capacity at constant pressure: 399 ± 8 J/K/mol
372.2 K
  molar heat capacity at constant pressure: 403 ± 8 J/K/mol
